Experiments:
Assay type in all cases: cell-based
ΔCC-PML-RAR = experiment: RA sensitivity of transcriptional repression, RARE-G5-TATA reporter; conditions: RA 1 nM-10 μM, repression by ΔCC-PML-RAR
Text: Light units were normalized to expression of a co-transfected β-galactosidase expression plasmid.

[1] = test system: murine hematopoietic progenitors (lin-); experiment: In vitro differentiation of murine hematopoietic progenitor cells transduced with retroviral constructs; conditions: control cells, RA 3 nM or 1 μM; maximum; as described (Purton et al., 1999)
Protocol: FIG. 5. A heterologous oligomerization domain activates the transforming potential of RAR. (A-B) p53-RAR form oligomers. (A) Nuclear extracts from COS-1 cells transfected with expression vectors for p53-RAR or RAR were incubated with tritiated RA (10 nM), fractionated and analysed as described in FIG. 3A. Note that the low MW peak of RA-binding capacity (coinciding with RAR) in p53-RAR cells derives from expression of wild type RAR, starting from its own ATG-conserved in the p53-RAR expression vector (see below)-. (B) Fractions from gel filtration of in vitro translated, ^35-S labelled p53-RAR were analysed by SDS-PAGE, followed by autoradiography. Note that two products are generated in the reaction: full-length p53-RAR, fractionating in oligomeric complexes, and RAR, starting from the internal ATG site of RAR and fractionating as a monomer. […] After sorting, cells were either plated in differentiation medium in the absence or in the presence of RA (3 nM or 1 μM) (C), or analysed by Western blot (D). […]
The capacity of p53-RAR to block differentiation was evaluated using primary hematopoietic precursors purified from murine bone marrow on the basis of the absence of surface differentiation antigens (lin-see methods). […] After 8-10 days, colonies were pooled and analysed for the expression of myeloid differentiation markers (Mac-1 and GR-1). […]

[2] = test system: CC-RAR expressing murine primary haemopoietic precursors; experiment: RA relief of differentiation block in transduced murine primary haemopoietic precursors; conditions: RA 3 nM or 1 μM, block by CC-RAR
Text: (§1) FIG. 5. […] (C-D) Effects of RAR chimeric proteins on differentiation of murine hematopoietic progenitors. Lin-cells were transduced with the indicated retroviral vectors and then sorted by FACS on the basis of their GFP positivity. In the case of ΔCC-PML-RAR, GFP+ cells were sorted in GFP^high or GFP^low expressors.
(§2) Murine hematopoietic progenitors were purified from the bone marrow of 12 weeks old BALB-C mice using commercially available kits (StemCell Tecnology). Cells were selected on the basis of the absence of lineage differentiation markers (lin−). Purified cells were pre-stimulated for two days in medium containing IL-3 (20 ng/ml), IL-6 (20 ng/ml) and stem cell factor (SCF, 100 ng/ml) and then attached to Retronectin (Takara Shuzo)-coated multiwell plates. Cells were incubated for 48 hours with the filtered supernatant from ecotropic packaging cells (Phoenix) transiently transfected with the indicated retroviral constructs (Grignani et al., 1998).

[3] = test system: PML-RAR expressing murine primary haemopoietic precursors; experiment: as above; conditions: RA 3 nM or 1 μM, block by PML-RAR
Text: as §1, §2

## CC1=C(/C=C/C(C)=C/C=C/C(C)=C/C(=O)O)C(C)(C)CCC1 [RA, retinoic acid]
ΔCC-PML-RAR
  RA concentration that reverted transcriptional repression: up to 100 nM
[1]
  reduction in the number of Mac1+ cells: 20-30%
[2]
  RA concentration that relieved the differentiation block: 1 µM
[3]
  RA concentration that relieved the differentiation block: 1 µM

From patent publication US20030207791A1, “Materials and methods relating to the treatment of leukaemias” (priority 2000, published 2003)
